The record followed here is PubChem BioAssay (NCI).

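Protocol summary: plate cells (96-well), add compound at 5 concentrations, incubate 48 h, interpolate endpoints linearly. The concentration for full growth arrest is given as TGI.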

What all share (experiment): NCI anticancer screen, dose series, 48 h
Test [1] has as its system RPMI-8226 leukemia.
Test [2] concerns NCI-H522 lung.
In test [3] the test system is CCRF-CEM leukemia.
The subject of test [4] is NCI-H460 lung.
Test [5] deals with SK-MEL-28 melanoma.
Test [6] has as its system OVCAR-4 ovarian.
In test [7] the test system is NCI-H23 lung.
Test [8] has as its system HOP-62 NSCLC.
For test [9], the system named is HCT-15 colon.
Test [10] relates to HL-60(TB) leukemia.
The test system of test [11] is MOLT-4 leukemia.

Turning to `CC[C@@H](/C=C\CCC(=O)C[C@H](O)CCC=C(C)C)O[Si](C(C)C)(C(C)C)C(C)C`, the TGI in test [1], in test [2], in test [3], in test [4], in test [5] and in test [6] was above 100 µM each time. The TGI in [7], in test [8], in [9], in [10] and in test [11] was above 100 µM throughout.

In the case of `CC(C)[C@@H]1ON1C(C)c1ccccc1` (stereo partly drawn), the TGI in test [1], in test [2], in [3], in [4], in test [5] and in test [6] was above 100 µM throughout. The TGI in [7], in test [8], in [9], in test [10] and in test [11] was above 100 µM in each case.

With `CCOc1cc(NC(C)=O)ccc1C(=O)NN1C(=O)C(Cl)C1c1ccco1` (stereo not drawn), the TGI was 45.5 µM in [1]; 25.5 µM in test [2]; 49.1 µM in test [3]; 35.1 µM in [4]; 63.5 µM in test [5]; 33.3 µM in [6]. The TGI in test [7] was found to be 39 µM; in [8], 35.7 µM; in test [9], 46.6 µM; in test [10] it was 43.4 µM; in [11], 29.8 µM.

Turning to `C/C(=C/CC[C@]1(CO)CC[C@]2(CO)[C@H](CC[C@@H]3[C@@]4(C)CC[C@H](OC5OCC(O)C(O)C5OC5OC(CO)C(O)C(O)C5O)C(C)(C)[C@@H]4CC[C@]32C)[C@H]1O)CO` (stereo partly drawn), the TGI in [1], in test [2], in test [3], in test [4], in test [5] and in [6] was above 100 µM in each case. The TGI in test [7], in [8], in test [10] and in test [11] was above 100 µM each time.

As for `CCN(CC)CCNCc1cc(Cl)cc2c1OCOC2`, the TGI in test [1], in [2], in [3], in [4], in test [5] and in [6] was above 10 µM in each case. Also, the TGI in test [7], in [8], in [9], in test [10] and in [11] was above 10 µM in each case.

Regarding `CCOC(=O)c1ccc(C(=O)C(C(C)=O)C(=O)OC(C)(C)C)[nH]1` (stereo not drawn), the TGI in [1], in test [2], in test [4], in test [5], in [6] and in test [7] was above 100 µM throughout. Besides, the TGI in test [8], in [9], in test [10] and in [11] was above 100 µM throughout.

With `CNc1ccc(N)cc1C(=O)N1CCC[C@H]1CO`, the TGI in [2], in [3], in test [5], in [6], in test [7] and in test [8] was above 100 µM in each case. The TGI in [9], in [10] and in test [11] was above 100 µM in each case.

For `O[C@H]1[C@H](O)[C@@H](O)[C@@]2(O)C[C@@H](O)[C@@H]1N2`, the TGI in test [2], in test [3], in [4], in test [5], in test [6] and in [7] was above 100 µM throughout. The TGI in test [8], in test [9], in test [10] and in test [11] was above 100 µM each time.

For the compound `C=CCOC(=O)C1C2OC3(C(C(=O)OC)=C2C(=O)OC)c2ccccc2CCC13` (stereo not drawn), the TGI in test [1], in test [3], in [4], in [5], in [6] and in test [7] was above 10 µM throughout. Further, the TGI in test [8], in test [9], in test [10] and in [11] was above 10 µM throughout.

For the compound `COC(=O)c1cnn2c1n[n+]([O-])c1ccccc12`, the TGI in test [1], in test [2], in test [3], in [5], in test [7] and in test [8] was above 100 µM in each case. The TGI in test [10] and in test [11] was above 100 µM each time.

`Cc1ccc(/C(O)=C/C(=O)C(=O)NN=C(c2ccccc2)c2ccccc2)cc1`: the TGI in [1], in test [3], in test [4], in test [5], in [6] and in test [7] was above 100 µM each time. The TGI in [9], in [10] and in test [11] was above 100 µM throughout.

Take `COc1ccc(CSc2ccccc2Cn2cccc2)cc1OC`: the TGI in [1], in test [3], in test [4], in test [5], in [6] and in [7] was above 100 µM each time. For the same compound, the TGI in [8], in test [9] and in test [10] was above 100 µM throughout.

With `Cc1ccc2nc(NC(=O)/C(Cc3nc4ccc(Cl)cc4[nH]c3=O)=N\NC(C)(C)C)sc2c1`, the TGI in test [1], in test [3], in test [4], in test [5], in test [6] and in [7] was above 100 µM each time. The TGI in test [9], in test [10] and in [11] was above 100 µM throughout.
